Assay results taken from US7585871B2, “Phenanthridine carbonyl phenols” (Wyeth, priority 2004, dated 2009).

How the values were obtained:
human ERα [1] = target: T1, human ERα (Homo sapiens, UniProt P03372); assay: Creatine kinase (CK) assay in ERα infected HAECT-1 cells; type: cell-based; details: for EC50: creatine kinase in lysate of ERα infected HAECT-1 cells; for CK (% E2): efficacy relative to E2, value in parentheses after the EC50
T1 construct: expressed in transfected cells; host or cells: HAECT-1 cells (immortalized human aortic endothelial cells) infected with Ad5-wt-hERα adenovirus
T1 sequence (P03372 1-595): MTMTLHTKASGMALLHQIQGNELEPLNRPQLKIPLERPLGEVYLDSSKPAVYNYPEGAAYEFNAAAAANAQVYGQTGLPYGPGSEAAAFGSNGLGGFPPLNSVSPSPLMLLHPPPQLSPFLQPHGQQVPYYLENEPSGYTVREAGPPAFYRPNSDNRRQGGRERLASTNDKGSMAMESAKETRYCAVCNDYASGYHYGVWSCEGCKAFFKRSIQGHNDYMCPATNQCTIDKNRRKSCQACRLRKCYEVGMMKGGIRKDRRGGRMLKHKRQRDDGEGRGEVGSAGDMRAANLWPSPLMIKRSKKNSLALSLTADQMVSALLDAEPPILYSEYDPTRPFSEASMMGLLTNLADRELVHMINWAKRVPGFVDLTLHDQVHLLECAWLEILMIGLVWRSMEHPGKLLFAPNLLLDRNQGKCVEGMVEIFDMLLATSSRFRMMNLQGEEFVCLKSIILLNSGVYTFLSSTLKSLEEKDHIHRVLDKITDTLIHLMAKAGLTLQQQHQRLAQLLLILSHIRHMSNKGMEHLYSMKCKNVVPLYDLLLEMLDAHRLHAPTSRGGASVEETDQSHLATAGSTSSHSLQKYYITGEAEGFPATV
Procedure: (§1) After four hours, cells were washed with EBM-BSA and incubated overnight in the same medium. Following overnight incubation, cells were washed with EBM-BSA and infected for 2 hours with 6 ml of a 1:10 dilution of Ad5-3x(NFκB).Luc virus (Adenovirus luciferase expression vector driven by 3 repeats of the MHC NFκb site 5′ to the thymidine kinase promoter) in EBM-BSA. After two hours, cells were washed and incubated at 34° C. for 1 hour. […] Control (no ER infection) cells were processed as above without Ad5-wt-hERα virus infection.
(§2) ERα infected HAECT-1 cells or control cells were thawed, diluted 42× in warm EBM-BSA, plated into 96-well plates at 0.1 ml/well and incubated for 4 h at 34° C. […] After 15-20 h, cells are lysed with 50 ul of Promega Cell Culture Lysis reagent for ˜5 min at room temp on shaker. After lysing, 15 ul of lysate is transferred to luminometer plates for luciferase determination. […] Creatine kinase was determined from the rate of increase in A340 following addition of 100 uL of CK assay reagent (Sigma, cat. No 47-10) to the remainder of the cell lysate.
(§3) For IC50 and EC50 calculations, mean IL-6, luciferase or CK values versus log10 of the compound concentration were fitted to a four parameter logistic equation. The IC50/EC50 value, ‘Hill slope’, upper and lower limits of the curve were iteratively estimated.

human ERα [2] = target: T1, human ERα; assay: IL-6 luciferase (IL6-luc) assay in ERα infected HAECT-1 cells; type: cell-based; details: for IC50: ERα infected HAECT-1 cells, IL-1β, Ad5-IL-6(1250 bp).Luc virus, 15-20 h; for IL6-luc (% E2): efficacy relative to E2, value in parentheses after the IC50
Procedure: as §1, §2, §3

Structure (SMILES) | melting point | EC50 (human ERα [1]) | CK (% E2) (human ERα [1]) | IC50 (human ERα [2]) | IL6-luc (% E2) (human ERα [2]) | CK (% E2) at a single concentration (human ERα [1]; @ 1 μM)
CC[C@@H]1c2cc(F)ccc2-c2ccccc2N1C(=O)c1ccc(O)cc1O [Example 22, 4-{[(6R)-6-ethyl-8-fluorophenanthridin-5(6H)-yl]carbonyl}benzene-1,3-diol] | 98 to 100 °C | 3 nM | 38% | 2 nM | 106% | –
CC1c2cc(F)ccc2-c2ccc(F)cc2N1C(=O)c1ccc(O)cc1 (racemic) [Example 42, 4-[(3,8-difluoro-6-methylphenanthridin-5(6H)-yl)carbonyl]phenol] | 193 to 195 °C | 90 nM | 37% | 4.5 nM | 95% | –
C[C@@H]1c2ccccc2-c2ccc(Cl)cc2N1C(=O)c1cccc(O)c1 [Example 25, 3-{[(6R)-3-chloro-6-methylphenanthridin-5(6H)-yl]carbonyl}phenol] | – | 141 nM | 26% | 9 nM | 103% | –
C[C@@H]1c2ccccc2-c2ccc(Cl)cc2N1C(=O)c1ccc(O)cc1 [Example 28, 4-{[(6R)-3-chloro-6-methylphenanthridin-5(6H)-yl]carbonyl}phenol] | 273.5 to 276 °C | 69 nM | 32% | 6 nM | 120% | –
C[C@@H]1c2cc(F)ccc2-c2ccccc2N1C(=O)c1ccc(Cl)c(O)c1 [Example 11, 2-chloro-5-{[(6R)-8-fluoro-6-methylphenanthridin-5(6H)-yl]carbonyl}phenol] | – | 307 nM | −29% | 271 nM | 107% | –
C[C@@H]1c2ccccc2-c2ccc(F)cc2N1C(=O)c1ccc(O)cc1O (single isomer, unassigned) [Example 40] | 184 to 187 °C | 8 nM | 20% | 1 nM | 107% | –
CC[C@@H]1c2cc(F)ccc2-c2ccccc2N1C(=O)c1cccc(O)c1 [Example 21, 3-{[(6R)-6-ethyl-8-fluorophenanthridin-5(6H)-yl]carbonyl}phenol] | 101 to 102 °C | – | – | 40 nM | 134% | 50% @ 1 μM
C[C@@H]1c2ccccc2-c2ccc(F)cc2N1C(=O)c1ccc(O)cc1 (single isomer, unassigned) [Example 37] | 235.7 to 236.8 °C | 28 nM | 20% | 6 nM | 114% | –
